Results from patent US20150166667A1, “METHODS AND COMPOSITIONS FOR TREATING CANCER” (RAMOT AT TEL-AVIV UNIVERSITY LTD., priority 2012, published 2015).

How the values were obtained:
[1] = tested on: primary keratinocytes and fibroblasts; experiment: 3D skin organotypic coculture, epidermal differentiation; type: cell-based, mice; details: for expression of K14 (marker of proliferating keratinocytes) / expression of the differentiation markers Keratin-1 and Loricrin: immunohistochemistry, 10^-6M insulin or 10^-7M IGF1, FIG. 3B
Method: Primary keratinocytes and fibroblasts were isolated from WT mice, and organotypic cocultures were plated. Immediately afterwards, 10^−6M insulin or 10^−7M IGF1 was added to the growth medium and maintained throughout the experiment. Coculture inserts were further processed; H&E staining of a tissue section is shown. The effects of insulin and IGF1 on differentiation of human keratinocytes were tested in a 3-dimensional organotypic skin co-culture. In this model system, primary murine or human keratinocytes were plated on top of a fibroblast-containing collagen gel dermal equivalent. Within a few days under proper growth conditions, the 3D-organotypic coculture became organized, mimicking the histological structure of the skin tissue in vivo, including the skin epidermal layers as well as keratin formation. By mimicking the natural tissue architecture, such conditions enable keratinocytes to recapitulate their tissue-specific differentiation program in vitro.

[2] = tested on: keratin 1; experiment: Keratin 1 assembly in differentiating skin cells (insoluble fraction, Western blot); type: cell-based, mice; details: cells induced to differentiate in presence of insulin or IGF1; FIG. 19
Method: Primary skin cells were isolated from the SIRKO and IR (lox/lox) control mice and grown in culture. On day 3, the calcium concentration in the growth medium was raised from 0.05 mM to 0.12 mM to induce differentiation, and the culture was further maintained. On day 6, cells were harvested. To evaluate the effects of IR inactivation on the state of keratin filaments, cell lysates were fractionated into a Triton X-100-soluble fraction, containing the elementary keratin units, and a Triton-insoluble fraction, containing the mature keratin filaments. Western blot analysis was carried out on these fractions to estimate the amount of K1 present in each fraction, using Actin content as a loading control. […] A representative experiment of 4 repeats is depicted in the figures.

[3] = tested on: primary murine keratinocytes; experiment: In vitro scratch closure assay, primary murine keratinocytes; type: cell-based
Method: (§1) Insulin and IGF1 treatment: Primary murine keratinocytes were grown for 6 days in culture. On the day of the experiment insulin (10^−6M) or IGF-1 (10^−7M) were added, after which a scratch was made by a micropipette tip (day 0). In some of the plates, proliferation was inhibited by adding 25 microgram/ml mitomycin C, 4 hours prior to culture wounding. In another set of experiments (E-F) insulin receptor was inactivated by siRNA in human HaCaT skin cells. The effects of insulin and IGF1 were measured as described above. In all experiments digital photos were taken at day 0 and 24 hours later (day 1), from which 20 randomly chosen photos were taken from each treatment group and further analyzed to determine the average remaining scratch width.
(§2) The effect of insulin on skin cell migration was assessed using an in vitro scratch closure assay. Keratinocytes were grown to confluency, were left untreated or were treated with insulin or IGF-1, in the absence (6A; top panel) or presence (6A; bottom panel) of mitomycin C. The cell layer was scratched by a tip, and the degree of closure was subsequently measured. The amount of migration of control cells in each group (with or without mitomycin C) was assigned the value 100%. The average of 4 separate experiments is depicted. […] Similar results were obtained in human HaCaT skin cells in which the insulin receptor was inactivated by siRNA.

[4] = tested on: human HaCaT skin cells; experiment: In vitro scratch closure assay, HaCaT cells with IR inactivated by siRNA; type: cell-based; details: FIG. 6B
Method: as §1, §2

[5] = tested on: SCC Cal 27 cells; experiment: Proliferation of SCC Cal 27 cells by thymidine incorporation; type: cell-based, human; details: serum starved cells, 24 hours; FIG. 15C
Method: SCC Cal 27 cells were grown in culture to 70% confluency. The cells were serum starved for 24 hours after which a blocking anti IR antibody (Thermo Scientific; Insulin Receptor (α-Subunit) Ab-3 (Clone 47-9); Cat. #MS-633-PABX) was added at the concentrations indicated, with or without insulin as indicated, and the cells were incubated further for 24 hours.
Left, center, and right bars are insulin, 10 nM, and 20 nM respectively. […] In each case, results were normalized to control groups. The P values for 10 nM and 20 nM are as follows: control vs 10 nM Ab: p=8.616 E-5; control vs 20 nM Ab: p=1.745 E-5; control vs 10 nM Ab+insulin: p=0.00072; control vs 20 nM Ab+insulin: p=0.00558.

[6] = tested on: p21 (WAF1/Cip1); experiment: p21 (WAF1/Cip1) expression in Ha-Ras infected keratinocytes, Western blot; type: cell-based, mouse; details: control cells, TPA 100 nM for 24 hr, FIG. 10A
Method: Primary mouse keratinocytes derived from control and IR-KO mice were infected with Ha-Ras, and 24 hr later were treated with TPA [100 nM] or vehicle for 24 hr. Expression of p21 (WAF1/Cip1) was evaluated by Western blot analysis, using a polyclonal antibody. Localization of p21 in the cells was examined by staining for DAPI and p21 (WAF1/Cip1) and visualization using fluorescent microscopy.

Compound	expression of K14 (marker of proliferating keratinocytes) [1]	expression of the differentiation markers Keratin-1 and Loricrin [1]	assembly of K1 (keratin 1 in the insoluble fraction) [2]	effect on scratch closure in presence of mitomycin C ([3]; 25 microgram/ml mitomycin C 4 hours prior to wounding, FIG. 6A bottom)	scratch closure ([3]; insulin 10^-6M, IGF-1 10^-7M, 24 hours, absence of mitomycin C, FIG. 6A top)	epidermal differentiation by histological analysis ([1]; 10^-6M insulin or 10^-7M IGF1 in growth medium, FIG. 3A)	effect on scratch closure in IR-inactivated cells [4]	SCC cancer cell proliferation with insulin alone [5]	levels of p21, a marker of cellular senescence [6]
IGF1	maintained abnormally in apical layers	delayed expression	opposite effect						
insulin	more rapid disappearance	enhanced	enhanced assembly of K1	not eliminated	facilitated scratch closure more than IGF	supported epidermal differentiation	eliminated by IR inactivation	increased the proliferation	
CCCCCCCCCCCCCC(=O)O[C@@H]1[C@@H](C)[C@@]2(O)[C@@H](C=C(CO)C[C@]3(O)C(=O)C(C)=C[C@@H]23)[C@@H]2C(C)(C)[C@]12OC(C)=O [TPA, 12-O-tetradecanoylphorbol-13-acetate]									decreased levels of p21
